Measurements taken from ChEMBL document CHEMBL6127116, “Discovery of Potent and Selective Blockers Targeting the Epilepsy-Associated KNa1.1 Channel” (J Med Chem, 2024).

Columns and labels:
[1] = target: Sodium channel protein type 5 subunit alpha (Homo sapiens, UniProt Q14524); assay: Inhibition of Nav1.5 (unknown origin) expressed in HEK293T cells at 10 uM by patch-clamp electrophysiology method; assay type: cell-based
[2] = target: Voltage-gated inwardly rectifying potassium channel KCNH2 (Homo sapiens, UniProt Q12809); assay: Inhibition of human ERG expressed in Xenopus laevis oocytes at 10 uM by two-electrode voltage clamp method; assay type: toxicity, cell-based; conditions: oocyte
[3] = target: T1, Potassium channel subfamily T member 1 (Homo sapiens, UniProt Q5JUK3); assay: Inhibition of human SLACK expressed in HEK293 cells
T1 sequence (Q5JUK3 whole entry): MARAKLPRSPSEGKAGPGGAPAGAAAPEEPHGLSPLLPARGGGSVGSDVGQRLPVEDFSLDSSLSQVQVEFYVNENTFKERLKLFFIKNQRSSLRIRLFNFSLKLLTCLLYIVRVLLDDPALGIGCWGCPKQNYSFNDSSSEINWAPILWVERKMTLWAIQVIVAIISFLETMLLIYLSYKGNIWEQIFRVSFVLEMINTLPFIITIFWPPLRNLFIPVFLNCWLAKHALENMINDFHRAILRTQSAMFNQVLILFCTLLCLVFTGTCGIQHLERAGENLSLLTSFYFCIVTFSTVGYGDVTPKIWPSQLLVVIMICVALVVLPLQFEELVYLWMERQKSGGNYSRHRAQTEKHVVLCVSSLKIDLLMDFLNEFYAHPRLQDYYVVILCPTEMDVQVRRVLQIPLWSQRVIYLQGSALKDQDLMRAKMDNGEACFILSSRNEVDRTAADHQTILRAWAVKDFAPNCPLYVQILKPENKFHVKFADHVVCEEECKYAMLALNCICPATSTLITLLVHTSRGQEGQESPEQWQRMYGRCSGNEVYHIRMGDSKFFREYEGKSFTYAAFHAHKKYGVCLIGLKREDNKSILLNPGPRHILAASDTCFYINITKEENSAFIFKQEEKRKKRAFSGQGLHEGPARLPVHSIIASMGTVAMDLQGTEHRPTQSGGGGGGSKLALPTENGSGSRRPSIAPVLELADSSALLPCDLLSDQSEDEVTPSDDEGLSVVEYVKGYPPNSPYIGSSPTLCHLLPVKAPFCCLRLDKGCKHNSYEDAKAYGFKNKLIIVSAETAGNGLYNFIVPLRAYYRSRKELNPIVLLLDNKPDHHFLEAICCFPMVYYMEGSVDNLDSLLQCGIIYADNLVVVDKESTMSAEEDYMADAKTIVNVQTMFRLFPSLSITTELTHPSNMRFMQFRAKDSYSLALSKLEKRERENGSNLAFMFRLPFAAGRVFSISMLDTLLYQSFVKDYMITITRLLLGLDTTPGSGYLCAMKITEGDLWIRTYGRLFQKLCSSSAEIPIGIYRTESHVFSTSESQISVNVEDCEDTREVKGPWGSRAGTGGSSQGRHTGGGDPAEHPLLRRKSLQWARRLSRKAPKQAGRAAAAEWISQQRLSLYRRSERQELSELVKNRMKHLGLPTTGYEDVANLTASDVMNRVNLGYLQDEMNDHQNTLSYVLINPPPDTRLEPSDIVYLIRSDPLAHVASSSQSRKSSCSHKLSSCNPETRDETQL

Sodium channel protein type 5 subunit alpha, sequence (Q14524 whole entry): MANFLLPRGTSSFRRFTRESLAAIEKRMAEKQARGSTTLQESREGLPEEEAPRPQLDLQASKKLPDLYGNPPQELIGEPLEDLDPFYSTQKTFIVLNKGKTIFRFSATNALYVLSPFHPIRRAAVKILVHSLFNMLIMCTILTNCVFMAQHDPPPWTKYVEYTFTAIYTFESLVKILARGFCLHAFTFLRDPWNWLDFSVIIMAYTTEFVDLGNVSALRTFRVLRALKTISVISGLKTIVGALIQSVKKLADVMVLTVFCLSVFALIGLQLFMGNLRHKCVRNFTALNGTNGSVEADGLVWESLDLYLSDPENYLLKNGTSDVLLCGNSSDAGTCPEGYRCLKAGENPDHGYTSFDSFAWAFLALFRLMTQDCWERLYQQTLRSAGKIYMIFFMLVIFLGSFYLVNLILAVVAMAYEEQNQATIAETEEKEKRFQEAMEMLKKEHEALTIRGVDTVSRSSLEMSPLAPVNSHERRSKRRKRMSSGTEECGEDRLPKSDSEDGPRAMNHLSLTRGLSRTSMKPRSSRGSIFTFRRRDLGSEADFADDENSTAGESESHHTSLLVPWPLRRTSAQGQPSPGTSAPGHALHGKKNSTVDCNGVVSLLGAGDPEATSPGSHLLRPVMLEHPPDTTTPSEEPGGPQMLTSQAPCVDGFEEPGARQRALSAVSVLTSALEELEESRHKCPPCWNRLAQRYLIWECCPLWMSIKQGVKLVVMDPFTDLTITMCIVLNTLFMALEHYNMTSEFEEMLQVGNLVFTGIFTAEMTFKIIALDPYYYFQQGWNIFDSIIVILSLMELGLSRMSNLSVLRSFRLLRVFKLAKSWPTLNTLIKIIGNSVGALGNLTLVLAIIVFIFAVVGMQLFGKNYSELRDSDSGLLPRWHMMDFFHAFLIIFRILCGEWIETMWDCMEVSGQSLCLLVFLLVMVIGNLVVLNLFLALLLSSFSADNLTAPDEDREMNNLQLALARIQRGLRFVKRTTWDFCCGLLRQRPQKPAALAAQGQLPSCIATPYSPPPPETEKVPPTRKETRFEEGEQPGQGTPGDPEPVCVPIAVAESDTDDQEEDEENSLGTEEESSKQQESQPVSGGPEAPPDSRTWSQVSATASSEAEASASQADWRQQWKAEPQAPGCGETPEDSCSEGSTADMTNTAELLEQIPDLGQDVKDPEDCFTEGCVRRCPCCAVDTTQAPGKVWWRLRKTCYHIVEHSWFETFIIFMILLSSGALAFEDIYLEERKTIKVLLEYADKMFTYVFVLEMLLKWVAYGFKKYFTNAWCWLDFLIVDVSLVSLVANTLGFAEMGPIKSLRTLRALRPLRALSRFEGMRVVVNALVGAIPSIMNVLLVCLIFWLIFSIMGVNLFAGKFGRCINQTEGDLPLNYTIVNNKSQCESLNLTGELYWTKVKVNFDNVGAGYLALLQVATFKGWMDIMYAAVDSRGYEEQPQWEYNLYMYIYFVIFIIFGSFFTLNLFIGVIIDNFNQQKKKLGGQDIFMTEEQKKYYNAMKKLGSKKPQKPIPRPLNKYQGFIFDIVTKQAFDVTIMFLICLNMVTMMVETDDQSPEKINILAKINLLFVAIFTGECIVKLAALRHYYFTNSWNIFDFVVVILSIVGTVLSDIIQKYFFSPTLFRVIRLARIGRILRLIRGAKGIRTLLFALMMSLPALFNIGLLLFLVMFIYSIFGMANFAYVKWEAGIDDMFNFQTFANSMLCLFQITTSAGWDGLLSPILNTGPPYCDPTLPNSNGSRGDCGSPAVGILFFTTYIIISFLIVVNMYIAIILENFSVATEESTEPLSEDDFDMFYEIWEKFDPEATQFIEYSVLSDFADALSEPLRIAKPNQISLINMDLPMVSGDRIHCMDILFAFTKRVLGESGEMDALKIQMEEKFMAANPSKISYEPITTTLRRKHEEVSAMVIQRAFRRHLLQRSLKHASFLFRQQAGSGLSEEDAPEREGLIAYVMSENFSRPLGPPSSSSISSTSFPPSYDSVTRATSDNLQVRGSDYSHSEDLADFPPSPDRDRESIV
Voltage-gated inwardly rectifying potassium channel KCNH2, sequence (Q12809 whole entry): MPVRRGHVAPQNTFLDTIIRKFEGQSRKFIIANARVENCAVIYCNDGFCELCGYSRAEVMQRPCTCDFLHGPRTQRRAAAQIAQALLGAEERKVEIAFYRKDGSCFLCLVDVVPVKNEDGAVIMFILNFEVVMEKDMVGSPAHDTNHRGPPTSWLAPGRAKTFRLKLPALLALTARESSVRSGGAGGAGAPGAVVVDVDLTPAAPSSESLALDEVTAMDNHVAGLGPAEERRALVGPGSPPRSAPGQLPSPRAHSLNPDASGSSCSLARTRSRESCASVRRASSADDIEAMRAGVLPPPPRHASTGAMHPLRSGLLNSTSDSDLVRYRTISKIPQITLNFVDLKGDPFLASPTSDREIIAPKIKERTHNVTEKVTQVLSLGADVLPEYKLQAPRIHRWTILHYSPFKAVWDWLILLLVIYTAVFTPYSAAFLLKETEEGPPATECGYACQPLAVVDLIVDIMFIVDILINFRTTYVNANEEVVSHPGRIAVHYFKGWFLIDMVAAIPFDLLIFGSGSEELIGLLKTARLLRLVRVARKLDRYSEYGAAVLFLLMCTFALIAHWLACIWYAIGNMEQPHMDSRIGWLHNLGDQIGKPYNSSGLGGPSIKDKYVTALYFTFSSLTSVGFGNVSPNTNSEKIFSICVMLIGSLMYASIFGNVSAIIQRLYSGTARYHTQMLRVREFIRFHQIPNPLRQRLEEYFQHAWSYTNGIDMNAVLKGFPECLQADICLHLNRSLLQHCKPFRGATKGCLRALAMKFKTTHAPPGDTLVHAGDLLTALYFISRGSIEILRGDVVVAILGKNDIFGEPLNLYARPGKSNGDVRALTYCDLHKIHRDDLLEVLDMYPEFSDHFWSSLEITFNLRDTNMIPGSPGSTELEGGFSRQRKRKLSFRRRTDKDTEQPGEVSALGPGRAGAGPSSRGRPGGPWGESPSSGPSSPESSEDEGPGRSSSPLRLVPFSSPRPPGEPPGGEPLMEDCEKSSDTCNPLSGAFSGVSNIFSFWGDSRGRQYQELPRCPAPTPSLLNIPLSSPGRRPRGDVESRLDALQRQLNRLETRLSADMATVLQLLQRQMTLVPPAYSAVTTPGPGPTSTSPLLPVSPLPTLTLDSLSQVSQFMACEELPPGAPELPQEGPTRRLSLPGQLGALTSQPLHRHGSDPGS

Row | SMILES | inhibition (INH) [1] | inhibition (INH) [2] | IC50 [3] [µM]
1 | NCCNCCCc1c(OCc2ccc(Br)cc2)ccc2ccccc12 | Not Active | Not Active | –
2 | COc1ccc(Cl)cc1NC(=O)CN1CCN(S(=O)(=O)N2CCC(C)CC2)CC1 | – | – | 1.84
3 | CN(C)CCCCNCc1c(OCc2ccc(F)cc2)ccc2ccccc12 | Not Active | – | –
